Data on four compounds can be found in PMC6017415, “Carbamates as Potential Prodrugs and a New Warhead for HDAC Inhibition” (Molecules : A Journal of Synthetic Chemistry and Natural …, 2018).

One assay concerns the target T1, recombinant human HDAC8 (Homo sapiens, UniProt Q9BY41).
T1 construct: made in house
T1 sequence (Q9BY41 1-377): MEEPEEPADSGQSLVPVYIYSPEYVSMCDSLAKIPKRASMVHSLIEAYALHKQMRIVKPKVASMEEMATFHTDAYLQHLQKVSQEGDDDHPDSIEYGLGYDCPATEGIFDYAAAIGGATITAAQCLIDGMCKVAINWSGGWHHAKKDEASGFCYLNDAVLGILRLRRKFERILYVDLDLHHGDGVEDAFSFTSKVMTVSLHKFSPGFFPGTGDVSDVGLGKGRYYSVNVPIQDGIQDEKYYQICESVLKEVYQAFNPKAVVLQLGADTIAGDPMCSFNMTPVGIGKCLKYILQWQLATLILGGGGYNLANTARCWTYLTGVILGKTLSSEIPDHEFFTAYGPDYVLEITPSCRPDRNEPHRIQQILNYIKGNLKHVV
The assay is described as follows: HDAC8 in vitro inhibition assay (Fluor de Lys kit). The settings on record: for inhibition at 100 µM: read-out: Inhibition (%) @ Conc. (µM) HDAC8. The class given is biochemical. The text has this:
(§1) In order to investigate a potential subtype selectivity among different HDAC classes, we first tested them against the recombinant histone deacetylases HDAC1 (class I) and HDAC6 (class llb). […] To further address this issue, we also tested the respective compounds against the class l histone deacetylase HDAC8 (also see Table 1).
(§2) Recombinant human HDAC1 and 6 were purchased from BPS Biosciences (San Diego, CA, USA), and recombinant human HDAC8 was produced as described before. Inhibition tests of human HDAC1 and 6 were conducted using carboxybenzyl acetyllysine aminomethylcoumarin (ZMAL) as a substrate. […] For testing of HDAC8, the commercial Fluor de Lys drug discovery kit (BML-KI178) (Enzo Life Sciences, Lausen, Switzerland) was used according to the manufacturer’s instruction. Briefly, the test compound, Fluor de Lys-HDAC8 substrate (50 μM), and enzyme were incubated for 90 min at 37 °C with subsequent addition of 50 μL of Developer II (BML-KI176) (Enzo Life Sciences, Lausen, Switzerland) and further incubation for 45 min at 30 °C. In both assays, trichostatin A (2 μM) was used to stop the reaction. Fluorescence in both cases was measured in a plate reader (BMG Polarstar, BMG Labtech, Ortenberg, Germany) with excitation at λ = 390 nm and emission at λ = 460 nm.

The next assay addresses T2, recombinant human HDAC6 (Homo sapiens, UniProt Q9UBN7).
T2 construct: purchased BPS Biosciences (San Diego, CA, USA)
T2 sequence (Q9UBN7 1-1215): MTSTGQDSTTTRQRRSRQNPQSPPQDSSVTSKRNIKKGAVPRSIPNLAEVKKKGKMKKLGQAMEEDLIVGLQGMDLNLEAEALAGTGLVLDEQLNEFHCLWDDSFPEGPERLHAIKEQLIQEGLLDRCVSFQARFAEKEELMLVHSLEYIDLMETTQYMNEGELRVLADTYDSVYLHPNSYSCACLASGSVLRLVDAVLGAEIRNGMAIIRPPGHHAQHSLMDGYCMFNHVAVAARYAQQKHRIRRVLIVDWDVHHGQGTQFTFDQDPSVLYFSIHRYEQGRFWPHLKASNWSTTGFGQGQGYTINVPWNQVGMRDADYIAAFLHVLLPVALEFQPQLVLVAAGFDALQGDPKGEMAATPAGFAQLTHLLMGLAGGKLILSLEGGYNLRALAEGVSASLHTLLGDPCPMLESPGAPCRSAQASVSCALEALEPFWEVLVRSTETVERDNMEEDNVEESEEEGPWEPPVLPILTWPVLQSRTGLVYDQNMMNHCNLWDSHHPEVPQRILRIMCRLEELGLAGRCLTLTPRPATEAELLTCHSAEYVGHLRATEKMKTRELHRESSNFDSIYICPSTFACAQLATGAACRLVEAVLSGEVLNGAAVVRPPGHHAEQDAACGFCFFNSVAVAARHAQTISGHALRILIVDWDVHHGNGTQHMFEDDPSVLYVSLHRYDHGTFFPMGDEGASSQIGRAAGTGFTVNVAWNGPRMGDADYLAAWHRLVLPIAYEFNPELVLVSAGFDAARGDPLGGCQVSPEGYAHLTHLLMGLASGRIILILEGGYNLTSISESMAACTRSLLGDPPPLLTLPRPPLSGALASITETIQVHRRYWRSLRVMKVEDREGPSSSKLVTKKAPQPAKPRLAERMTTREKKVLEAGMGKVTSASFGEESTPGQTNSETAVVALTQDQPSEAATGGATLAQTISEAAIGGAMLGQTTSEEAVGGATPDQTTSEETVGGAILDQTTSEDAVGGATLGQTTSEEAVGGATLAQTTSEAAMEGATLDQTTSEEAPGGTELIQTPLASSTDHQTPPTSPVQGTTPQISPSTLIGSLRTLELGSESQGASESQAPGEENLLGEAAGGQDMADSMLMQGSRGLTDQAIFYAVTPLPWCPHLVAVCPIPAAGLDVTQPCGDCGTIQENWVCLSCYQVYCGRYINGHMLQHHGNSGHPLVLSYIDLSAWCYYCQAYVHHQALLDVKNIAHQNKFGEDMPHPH
In words: HDAC6 in vitro fluorescence-based inhibition assay (ZMAL substrate). The class given is biochemical. The settings on record: recombinant human HDAC6, ZMAL 10.5 µM, 90 min 37 °C; for IC50: read-out: IC50 (µM) ± SE HDAC6.
Description: as §1, §2

Assay [1] relates to HDAC activity in HL60 cells. In words: Cellular HDAC inhibition assay (MAL substrate) in HL60 cells. The settings on record: Homo sapiens, HL-60, read-out: IC50 (µM) ± SE cellular HDAC inhibition HL60.
Description: Therefore, we decided to adapt this assay for a cellular setting allowing us to verify the previous results by assessing HDAC inhibition in the human leukemia cell lines HL60 and U937 (see the right side of Table 2).
After 2 h of incubation, 50 µL substrate solution were added, containing tert-butyloxycarbonyl acetyl lysine aminomethylcoumarin (MAL) as a substrate (300 µM final assay concentration) and IGEPAL CA-630 (final concentration 0.05%). After 2 more hours of incubation at 37 °C and 5% CO2, 50 µL stop solution consisting of 0.5 µL TSA (100 µM) and 5 µL trypsin solution (10 mg/mL) in 44.5 µL cell buffer were added. This mixture was incubated for a further 20 min at 37 °C. Fluorescence was measured in a plate reader (BMG Polarstar) with excitation at λ = 390 nm and emission at λ = 460 nm.
The test system of assay [2] is acetylation of histone H3 and tubulin in HL60 cells. The assay is described as follows: Western blot of acetylation levels of histone H3 and tubulin in HL60 cells. The settings on record: 4 h. Type of assay: cell-based, human. As for the experimental part:
An inhibition of deacetylation in this experiment is expected to lead to hyperacetylation of the respective proteins. Besides histone H3, acetylated tubulin was chosen as a target protein. As tubulin is only accepted as a target by HDAC 6 [21], this allows us to explore subtype selectivity in a cellular setting (see Figure 4).
HL60 cells were treated with the inhibitors in the given concentrations. Cells treated with dimethyl sulfoxide as a vehicle were used as controls. After an incubation time of 4 h, cells were transferred into 50-mL Falcon tubes and centrifuged (300× g, 5 min). The supernatant was removed, and the cells were washed with PBS, before they were transferred to 1.7-mL reaction tubes. The cells were lysated with Bio-Rad loading buffer, and the cell suspension was heated to 95 °C for 5 min. The proteins then were separated using a 15% SDS-polyacrylamide gel electrophoresis and transferred to a polyvinylidene fluoride (PVDF) membrane (Roti-PVDF, Carl Roth, Karlsruhe, Germany). Acetylation levels were detected using an anti-acetyl histone H3 antibody (Millipore, Billerica, MA, USA) and an anti-acetyl-α-tubulin antibody (Sigma Aldrich, St. Louis, MO, USA). An antibody directed against GAPDH (Sigma Aldrich) was used as a loading control.

Where “and” joins values, the source holds several entries; their conditions need not be identical. Equal values may be shown once.

What is called inhibition is the drop in the measured response relative to a control, in per cent. Usually IC50 stands for the midpoint of a concentration-inhibition curve. As to `CC(C)NC(=O)ONC(=O)CCCCCCC(=O)Nc1ccccc1` [Compound 2a, [(8-Anilino-8-oxo-octanoyl)amino]N-isopropylcarbamate], the inhibition at 100 µM on recombinant human HDAC8 is 35%. The “IC50 (µM) ± SE HDAC6” value at recombinant human HDAC6 is reported as “low micromolar range”. Also, the IC50 at recombinant human HDAC6 came to 2.11 ± 0.02 µM; in assay [1] it was 3.25 ± 0.02 µM.
In the case of `O=C(CCCCCCC(=O)Nc1ccccc1)NOC(=O)NCc1ccccc1` [Compound 2b, [(8-Anilino-8-oxo-octanoyl)amino]N-benzylcarbamate], the inhibition at 100 µM at recombinant human HDAC8 turned out to be 52%. Moreover, the IC50 on recombinant human HDAC6 turned out to be 0.637 ± 0.002 µM; in assay [1], 1.89 ± 0.04 µM.
For `CCNC(=O)ONC(=O)CCCCCCC(=O)Nc1ccccc1` [Compound 2c, [(8-Anilino-8-oxo-octanoyl)amino]N-ethylcarbamate], the inhibition at 100 µM at recombinant human HDAC8 amounted to 68%. Also, the results for the IC50 (on recombinant human HDAC6; in assay [1]) were 0.58 ± 0.01 µM and 1.42 ± 0.53 µM, respectively.
As to `O=C(CCCCCCC(=O)Nc1ccccc1)NOC(=O)Nc1ccccc1` [Compound 2d, [(8-Anilino-8-oxo-octanoyl)amino]N-phenylcarbamate], the IC50 is 6.5 µM and 6.49 µM at recombinant human HDAC8 (recombinant human HDAC8, Fluor de Lys-HDAC8 substrate 50 µM, 90 min 37 °C, read-out: IC50 (µM) ± SE HDAC8); 0.187 ± 0.007 µM on recombinant human HDAC6; 0.69 ± 0.004 µM in assay [1]. Further, in assay [2], the “effect on H3 and tubulin acetylation levels” value is “in the same range as SAHA”.
